Publication PMC9646673, “A Novel, Orally Bioavailable, Small-Molecule Inhibitor of PCSK9 With Significant Cholesterol-Lowering Properties In Vivo” (Journal of Lipid Research, 2022)
Where two headings read alike, the source gives them in different places.

How the values were obtained:
[1] = Pharmacokinetic study, single dose PO/SC/IV; format: in vivo, female C57BL/6 mice; details: female, C57BL/6, mouse, plasma; for AUC(0-inf): read-out: AUC Infinity; for MRT inf: read-out: MRT Infinity
Description: Pharmacokinetic study protocols were reviewed and approved by the Institutional Animal Care and Use Committee of ChemPartner (Shanghai, China) under ethics A998HL0119. Female C57BL/6 mice aged 10–14 weeks (18–21 g) were purchased from Jihui Laboratory Animal Co. Ltd. (Shanghai, China) and were given ad libitum access to water and food throughout the in-life phase of the studies. […] At designated timepoints (t = 0.083, 0.25, 0.5, 1, 2, 4, 8, and 24 h), the animals were manually restrained, and 110 μl of blood per timepoint was collected into precooled EDTA-K2 tubes via the facial vein. […] Bioavailability was determined by comparing the plasma exposure levels (AUClast) of NYX-PCSK9i when given orally with plasma exposure levels obtained via the IV route.

APOE∗3-Leiden.CETP mice = assay: Second efficacy study: body weight, food intake, plasma ALT and AST; format: in vivo, mouse; set-up: Body weight (mean ± SD) / Food intake (mean ± SD): unit not given here; details: NYX-PCSK9i 50 mg/kg BID PO, atorvastatin […]; for Plasma ALT / Plasma AST: group-pooled
Text: Animal experiments were approved by the governmental central committee on animal experiments (AVD5010020172064) and TNO’s animal welfare body (TNO-471 and TNO-482). Female APOE∗3-Leiden.CETP transgenic mice (11–16 weeks of age) were bred at the animal facility of TNO-InnoSer (Leiden, The Netherlands). Female animals were used in this study as they are more responsive to dietary cholesterol and fat than males and therefore typically develop atherosclerosis more rapidly than male APOE∗3-Leiden and APOE∗3-Leiden.CETP mice on cholesterol-containing diets ([33], [34]). Although measurements of atherosclerosis were not included as part of the present study, females were used with the prospect in mind that atherosclerosis studies will follow. The mice were housed under standard conditions that included 12 h light-dark cycles and access to a WTD and sterilized tap water ad libitum. Body weight, food intake, and clinical signs of behavior were monitored throughout the studies. […] Time t = 0 (weeks) was designated as the time at which mice were matched into groups after the 3-week run-in period in each efficacy study.
(§1) In both studies, blood samples were collected at weekly intervals via tail vein sampling after fasting the mice for 4 h. Blood samples were centrifugated (4500 g at 4°C), and the plasma was collected for the following analyses. Total plasma cholesterol levels were determined using a Cholesterol CHOD-PAP kit according to the manufacturer’s instructions. Plasma HDL-C levels were determined by first precipitating apoB-containing lipids using PEG 6000/glycine and then utilizing the Cholesterol CHOD-PAP kit ([35]). Non-HDL-C levels were determined by subtracting HDL-C levels from total cholesterol levels ([32]). Group-pooled lipoprotein profiles were determined by FPLC analysis using an AKTApurifier 10 FPLC system (GE Healthcare, Chicago, IL). Plasma PCSK9 levels were determined using a Mouse PCSK9 Quantikine ELISA kit as per the manufacturer’s protocol. ALT and AST levels of group-pooled samples were measured using the Roche Reflotron Plus System (Mannheim, Germany).

PCSK9-D374Y = target: T1, PCSK9-D374Y (Homo sapiens, UniProt Q8NBP7, D374Y); assay: ex vivo lymphocyte LDLR surface expression assay with recombinant PCSK9-D374Y; format: cell-based; details: 4 μM, relative to PCSK9 D374Y and vehicle
T1 construct: purchased CycLex (Nagano, Japan); host or cells: added to primary human lymphocytes (PBMCs from a human donor)
T1 sequence (Q8NBP7 153-692 D374Y): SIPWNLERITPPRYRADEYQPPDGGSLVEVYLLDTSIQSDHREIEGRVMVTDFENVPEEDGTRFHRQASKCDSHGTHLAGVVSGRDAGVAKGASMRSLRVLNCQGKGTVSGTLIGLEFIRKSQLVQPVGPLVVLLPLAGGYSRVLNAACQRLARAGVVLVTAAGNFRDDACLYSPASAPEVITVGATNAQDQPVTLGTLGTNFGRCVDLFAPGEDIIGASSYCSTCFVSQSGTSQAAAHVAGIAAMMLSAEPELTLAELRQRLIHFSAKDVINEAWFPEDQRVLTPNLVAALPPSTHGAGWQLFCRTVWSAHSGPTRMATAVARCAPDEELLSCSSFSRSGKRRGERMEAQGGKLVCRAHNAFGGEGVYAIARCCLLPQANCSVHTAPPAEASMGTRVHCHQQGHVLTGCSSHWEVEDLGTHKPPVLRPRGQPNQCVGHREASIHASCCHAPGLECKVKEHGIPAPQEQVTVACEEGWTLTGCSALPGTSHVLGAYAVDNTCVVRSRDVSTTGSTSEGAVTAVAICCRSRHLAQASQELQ
T1 sequence (Q8NBP7 31-152 partner limits assumed): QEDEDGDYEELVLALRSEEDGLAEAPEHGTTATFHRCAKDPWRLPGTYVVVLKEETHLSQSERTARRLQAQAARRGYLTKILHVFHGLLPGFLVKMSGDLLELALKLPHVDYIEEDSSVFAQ
Text: Ethics was granted by the Comité de Protection des Personnes Sud Méditerranée (ID: 2020-A00196-33). Studies using human samples abided by the Declaration of Helsinki principles.

[2] = test system: plasma PCSK9 protein levels; assay: Second efficacy study: plasma total PCSK9 (ELISA); format: in vivo, mouse; details: 50 mg/kg BID PO, from day 7, sustained for the remaining 4 weeks
Text: (§2) Animal experiments were approved by the governmental central committee on animal experiments (AVD5010020172064) and TNO’s animal welfare body (TNO-471 and TNO-482). Female APOE∗3-Leiden.CETP transgenic mice (11–16 weeks of age) were bred at the animal facility of TNO-InnoSer (Leiden, The Netherlands). Female animals were used in this study as they are more responsive to dietary cholesterol and fat than males and therefore typically develop atherosclerosis more rapidly than male APOE∗3-Leiden and APOE∗3-Leiden.CETP mice on cholesterol-containing diets ([33], [34]). […] Body weight, food intake, and clinical signs of behavior were monitored throughout the studies. […]
as §1, with “Blood samples were centrifugated (4500 g at 4°C), and the plasma was collected for the following analyses.” left out, “Plasma PCSK9 levels were determined using a Mouse PCSK9 Quantikine ELISA kit as per the manufacturer’s protocol. ALT and AST levels of group-pooled samples were measured using the Roche Reflotron Plus System (Mannheim, Germany).” left out

[3] = test system: plasma PCSK9 protein levels; assay: First efficacy study: plasma total PCSK9 (ELISA); format: in vivo, mouse; details: 50 mg/kg BID PO, day 28
Text: as §2
Treatment times were around 8:00 am and 4:00 pm each day. Throughout the in-life phase of the study, body weight and food intake (per cage) were measured at regular predetermined intervals while blood samples were collected every 7 days. […] Throughout the study, plasma cholesterol, triglycerides, HDL-C, lipoprotein profiles, PCSK9 expression levels, aspartate transaminase levels (AST), and alanine transaminase levels (ALT) were measured as described below.
In both studies, blood samples were collected at weekly intervals via tail vein sampling after fasting the mice for 4 h. […] Total plasma cholesterol levels were determined using a Cholesterol CHOD-PAP kit according to the manufacturer’s instructions. […]

Cc1cn(-c2cc(CN3CCC[C@H](N)C3)cc(NC(=O)c3cc(-c4ccccc4)ccn3)c2)cn1 [NYX-PCSK9i]
AUC(0-t) ([1]; iv, 5 mg/kg, 5 mg/kg IV): 2010 ng·h/mL | AUC(0-t) ([1]; po, 50 mg/kg, 50 mg/kg PO): ~8100 ng·h/mL | AUC(0-t) ([1]; sc, 50 mg/kg, 50 mg/kg SC): 25500 ng·h/mL | clearance ([1]; 5 mg/kg IV): 38.2 mL/min/kg | half-life ([1]; 5 mg/kg IV): 7.48 h | AUC(0-inf) ([1]; 5 mg/kg IV): 2190 ng·h/mL | MRT inf ([1]; 5 mg/kg IV): 6.42 h | Vd ([1]; 5 mg/kg IV, read-out: Vss): 14.7 L/kg | half-life ([1]; 50 mg/kg PO): 6.29 h | AUC(0-inf) ([1]; 50 mg/kg PO): 8700 ng·h/mL | MRT inf ([1]; 50 mg/kg PO): 7.07 h | half-life ([1]; 50 mg/kg SC): 9.11 h | AUC(0-inf) ([1]; 50 mg/kg SC): 30400 ng·h/mL | MRT inf ([1]; 50 mg/kg SC): 12.2 h | bioavailability ([1]; AUClast 50 mg/kg PO vs 5 mg/kg IV): 40% | Body weight (mean ± SD) (APOE∗3-Leiden.CETP mice; day 0 (baseline)): 21.9 ± 1.7 | Food intake (mean ± SD) (APOE∗3-Leiden.CETP mice; day 0 (baseline)): 3.4 ± 0.3 | Food intake (mean ± SD) (APOE∗3-Leiden.CETP mice; day 7): 3.5 ± 0.3 | Body weight (mean ± SD) (APOE∗3-Leiden.CETP mice; day 14): 23.0 ± 2.4 | Food intake (mean ± SD) (APOE∗3-Leiden.CETP mice; day 14): 3.4 ± 0.0 | Body weight (mean ± SD) (APOE∗3-Leiden.CETP mice; day 21): 22.4 ± 2.0 | Food intake (mean ± SD) (APOE∗3-Leiden.CETP mice; day 21): 2.7 ± 0.0 | Body weight (mean ± SD) (APOE∗3-Leiden.CETP mice; day 28): 21.9 ± 2.1 | Food intake (mean ± SD) (APOE∗3-Leiden.CETP mice; day 28): 2.7 ± 0.1 | Food intake (mean ± SD) (APOE∗3-Leiden.CETP mice; day 35): 2.7 ± 0.3 | Plasma ALT (APOE∗3-Leiden.CETP mice; day 0 (baseline)): 91 U/L | Plasma AST (APOE∗3-Leiden.CETP mice; day 0 (baseline)): 91 U/L | Plasma ALT (APOE∗3-Leiden.CETP mice; day 14): 84 U/L | Plasma AST (APOE∗3-Leiden.CETP mice; day 14): 84 U/L | Plasma ALT (APOE∗3-Leiden.CETP mice; day 28): 36 U/L | Plasma AST (APOE∗3-Leiden.CETP mice; day 28): 36 U/L | Plasma ALT (APOE∗3-Leiden.CETP mice; day 35): 42 U/L | Plasma AST (APOE∗3-Leiden.CETP mice; day 35): 42 U/L | LDLR expression levels on surface of human lymphocytes (PCSK9-D374Y): large and significant increase in LDLR expression levels | elevation of total plasma PCSK9 levels [2]: approximately 2 fold | maximal increase in plasma PCSK9 protein levels [3]: 2 fold
